Source: patent US20240287549A1, “METHODS AND COMPOSITIONS FOR EFFICIENT PRODUCTION OF BIOFUELS AND BIOPLASTICS FROM TOXIC FEEDSTOCKS” (Massachusetts Institute of Technology, priority 2021, published 2024)

Legend:
[1] = tested on: prototrophic wildtype (WT) strain FY4/5; test: Constituent toxicity: ethanol titer of high-gravity fermentation in YSC with single inhibitors; assay type: cell-based, Saccharomyces cerevisiae; details: for effect of KCl alone on ethanol titer: plus 50 mM KCl only; for additional boost of ethanol production by K+/pH adjustment: 50 mM KCl and NH4OH to pH 6 vs unadjusted
Protocol: To systematically characterize the impact of these constituent toxicities, ethanol production was assessed in yeast synthetic complete medium (YSC) with the 3 inhibitors added individually at equimolar concentration. As a completely chemically-defined formulation with trace vitamins, minerals, and amino acids, YSC lacks the undefined extracts contained in “rich” media that could supply unknown components to boost or hinder tolerance. […] For the constituent toxicity studies, prototrophic strain FY4/5 was expanded in a starter culture of YSC containing 150 g/L glucose and grown overnight to approximately OD600=10. To mimic industrial high cell density conditions, 100 OD600 units of cells per fermentation were harvested, washed with an equal volume of room temperature distilled and deionized water, and cell pellets resuspended in 4 mL media for a production cell density of approximately OD600=25 (9.9 g DCW/L). Fermentation media consisted of 250 g/L glucose in YSC and were supplemented with (left to right in FIG. 1A) 6 mM NH4Cl, 50/6 mM KCl/NH4OH, 100/128 mM acetic acid/NH4Cl, 100/50/128 mM acetic acid/KCl/NH4Cl, 100/50/128 mM acetic acid/KCl/NH4OH, 100/11 mM furfural/NHCl, 100/50/11 mM furfural/KCl/NH4OH, 100/7 mM 2-furanmethanol (FF—OH)/NHCl, 100/50/7 mM FF—OH/KCl/NH4Cl, 100/50/7 mM FF—OH/KCl/NHOH, 100/7 mM 5-hydroxymethyl-furfural (HMF)/NH4Cl, 100/50/7 mM HMF/KCl/NHOH, 100/7 mM furan-2,5-dimethanol (HMF-OH)/NH4Cl, 100/50/7 mM HMF-OH/KCl/NH4Cl, or 100/50/7 mM HMF-OH/KCl/NH4OH.
Inhibitor supplementation for the additionally screened conditions in FIGS. 2A-2C were: 50/60 mM acetic acid/NHCl, 50/50/60 mM acetic acid/KCl/NH4OH, 150/180 mM acetic acid/NH4Cl, 150/50/180 mM acetic acid/KCl/NH4OH, 50/9 mM furfural/NH4Cl, 50/50/9 mM furfural/KCl/NH4OH, 50/6 mM FF—OH/NHCl, 50/50/6 mM FF—OH/KCl/NH4OH, 150/15 mM furfural/NH4Cl. 150/50/15 mM furfural/KCl/NH4OH, 150/9 mM FF—OH/NH4Cl, 150/50/9 mM FF—OH/KCl/NH4OH, 50/6 mM HMF/NHCl, 50/50/6 mM HMF/KCl/NH4OH, 50/6 mM HMF-OH/NH4Cl, 50/50/6 mM HMF-OH/KCl/NH4OH, 150/11 mM HMF/NH4Cl, 150/50/11 mM HMF/KCl/NH4OH, 150/9 mM HMF-OH/NHCl, or 150/50/9 mM HMF-OH/KCl/NH4OH. The “/” notation is used for visual abbreviation but indicates the addition of all components during preparation. […] Furfural (Sigma-Aldrich #185914), HMF (Sigma-Aldrich #H40807), FF—OH (Sigma-Aldrich #W249106), and HMF-OH (Santa Cruz Biotechnology #sc-210242, scbt.com) were added directly to media in their supplier, concentrated forms to minimize the addition of volume. […] Fermentation samples of 550 μL were harvested after 48 h, cells removed by centrifugation (16,870×g, 2 min), and supernatants 0.45 μm syringe-filtered (Fisher Scientific #50-109-8735, fishersci.com) into glass HPLC vials and stored at 4° C. until analysis. Similarly, pre-inoculation fermentation media were syringe-filtered and diluted 1:5 in water for HPLC verification of starting glucose and inhibitor concentrations.
Analytes were separated isocratically in 5 mM sulfuric acid at 65° C. using a flow rate of […]. Under these conditions, retention times were approximately as follows: glucose 9.2 min, xylose 9.9 min, lactic acid 13.1 min, glycerol 13.8 min, acetic acid 15.3 min, ethanol 22.3 min, HMF 30.2 min, and furfural 45.0 min.

yeast [2] = details: prior experience
yeast [3] = details: previously established (ref. 16); cited from earlier work
[4] = tested on: medium toxified to 40/28/55 mM furfural/HMF/acetic acid; details: Saccharomyces cerevisiae, pH 6
[5] = 100 mM of the substance in YSC, 250 g/L glucose, 48 h, 30 °C, no K+/pH adjustment
[6] = 100 mM of the substance, plus 50 mM KCl and NH4OH to pH 6

| SMILES | ethanol titer [1, 5] [g/L] | ethanol titer [1, 6] [g/L] | effect of KCl alone on ethanol titer ([1]; 100 mM of the substance) | other results |
| --- | --- | --- | --- | --- |
| CC(=O)O [acetic acid] | 17 ± 0.1 | 109 ± 0.6 | no amelioration |  |
| OCc1ccc(CO)o1 [HMF-OH, furan-2,5-dimethanol] |  | 69 ± 0.6 | improvements intermediate to those with K+/pH together | additional boost of ethanol production by K+/pH adjustment ([1]; 100 mM): 39%; higher ethanol titer than cognate aldehyde ([1]; 100 mM, HMF-OH vs HMF, no K+/pH adjustment): 45% |
| Cl.N [NH4Cl] |  |  |  | concentration tolerated with no detectable changes on ethanol titer (yeast [2]): at least 200 mM |
| O=Cc1ccco1 [furfural] | 4 ± 0.3 |  |  |  |
| [Ca+2] [Ca^2+] |  |  |  | effect on fermentation (yeast [3]): fermentation-neutral |
| [K+] [K^+] |  |  |  | concentration up to which effects are fermentation-beneficial (yeast [3]): at least 110 mM |
| O=Cc1ccc(CO)o1 [HMF, 5-hydroxymethyl-furfural] | 34 ± 0.3 |  |  | concentration tolerable by yeast for growth to commence [4]: approximately 1.5 g/L |
| OCc1ccco1 [FF—OH, 2-furanmethanol] | 35 ± 0.4 | 59 ± 0.5 | improvements intermediate to those with K+/pH together | additional boost of ethanol production by K+/pH adjustment ([1]; 100 mM): 69%; tolerated more than furfural at equimolar concentration (ethanol output) ([1]; 100 mM, FF-OH vs FF, no K+/pH adjustment): 9 × |
